Experimental data: paper PMC6335420, “The cell cycle regulator GpsB functions as cytosolic adaptor for multiple cell wall enzymes” (Nature Communications, 2019)
Non-standard residues stand in square brackets, D forms with d. Residues, ends and D or L forms follow the SMILES beside them. No end group written: not given here. *: point of attachment. Fluorescein(5-Mal) = O=C1OC2(c3ccc(O)cc3Oc3cc(O)ccc32)c2ccc(N3C(=O)CC(*)C3=O)cc21; 5FAM = O=C1OC2(c3ccc(O)cc3Oc3cc(O)ccc32)c2ccc(C(=O)*)cc21; Nle = CCCC[C@H](N)C(=O)O

Legend:
BsGpsB1-68Tyr25Phe = biological target: T1, BsGpsB1-68Tyr25Phe (Bacillus subtilis, UniProt P0CI74, Y25F); assay: Fluorescence polarisation binding to BsGpsB1-68Tyr25Phe; conditions: FP, BsGpsB Tyr25Phe relative to wild-type BsGpsB1-68
T1 construct: correspond to BsGpsB1-68^Asp31Ala and BsGpsB1-68^Tyr25Phe mutants, respectively; His6 (N, cleaved yes); made in house; host or cells: E. coli BL21(DE3)
T1 sequence (P0CI74 1-68 Y25F): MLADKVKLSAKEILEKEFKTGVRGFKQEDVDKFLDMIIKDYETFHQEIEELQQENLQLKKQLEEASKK
Excerpt: (§1) 75 the BsGpsB5-64:BsPBP11-17 complex.

BsGpsB1-68Asp31Ala = biological target: T2, BsGpsB1-68Asp31Ala (Bacillus subtilis, UniProt P0CI74, D31A); assay: Fluorescence polarisation binding to BsGpsB1-68Asp31Ala; conditions: FP, BsGpsB Asp31Ala relative to wild-type BsGpsB1-68
T2 construct: Glu17Ala, Asp31Ala and Asp35Ala mutations were introduced to the BsGpsB1-68 expression construct plasmid; His6 (N, cleaved yes); made in house; host or cells: E. coli BL21(DE3)
T2 sequence (P0CI74 1-68 D31A): as the sequence (P0CI74 1-68 Y25F) above, with F25Y, D31A counted along it
Excerpt: as §1

BsGpsB1-68Lys32Glu = biological target: T3, BsGpsB1-68Lys32Glu (Bacillus subtilis, UniProt P0CI74, K32E); assay: Fluorescence polarisation binding to BsGpsB1-68Lys32Glu; conditions: FP, relative to wild-type LmPBPA1 peptide
T3 construct: His6 (N, cleaved yes); made in house; host or cells: E. coli BL21(DE3)
T3 sequence (P0CI74 1-68 K32E): as the sequence (P0CI74 1-68 Y25F) above, with F25Y, K32E counted along it
Excerpt: as §1

LmGpsB = assay: BACTH (bacterial two-hybrid) interaction with LmGpsB; assay type: cell-based, Listeria monocytogenes; conditions: E. coli BTH101, 30 °C, photographed after 24 and 48 h; LmPBPA1 variants as T25-PBPA1ΔGT-TP
Excerpt: The BACTH system[63] was used for analysis of protein:protein interactions. First, LmGpsB was screened against LmPBPA1 (lmo1892) variants to identify residues in LmPBPA1 that are important for binding LmGpsB. To facilitate screening, we used a T25 fragment of Bordetella pertussis adenylate cyclase that had been fused to the N-terminal 91 amino acids of LmPBPA1 to create a T25-LmPBPA1 fusion containing the N-terminal cytoplasmic mini-domain and the transmembrane helix, but lacking lacking the extracellular glycosyltransferase and transpeptidase domains (T25-PBPA1ΔGT-TP) in plasmid pSH437[21]. LmPBPA1 residues that corresponded to the BsGpsB binding motif of BsPBP1 (Thr7, Arg8, Tyr11, Arg12) and additional positively charged amino acids (Lys14, Lys20, Lys21, Lys22, Lys25, Arg26, Lys28 and Arg29) in T25-PBP A1ΔGT-TP were replaced with alanine prior to screening against GpsB-T18. The pSH437 plasmid was mutated by Quikchange mutagenesis using the primer pairs SHW744/SHW754 (T7A, pSH485), SHW746/SHW747 (R8A, pSH486), SHW755/SHW756 (Y11A, pSH487), SHW748/SHW749 (R12A, pSH488), SHW757/SHW758 (K14A, pSH489), SHW759/SHW760 (K20A, pSH490), SHW761/SHW762 (K21A, pSH491), SHW763/SHW764 (K22A, pSH492), SHW765/SHW766 (K25A, pSH493), SHW767/SHW768 (R26A, pSH494), SHW769/SHW770 (K28A, pSH495) and SHW771/SHW772 (R29A, pSH496).
pJR164 and pJR169 were constructed by cloning sepF (primers JR334/JR335 and XbaI/KpnI digestion) into pKT25 and p25-N, respectively. pJR165 and pJR170 were generated by cloning ezrA into pKT25 and p25-N, respectively, using primers JR339/JR340 and XbaI/KpnI for digestion. pJR172 and pJR174 were obtained by cloning zapA into pKT25 and p25-N, respectively, using primers JR337/JR338 and PstI/KpnI. pJR213 was constructed by amplification of divIB with primers JR353/JR354 and cloning into pKT25 using XbaI/KpnI. pJR214 was generated by PCR amplification of divIC with primers JR355/JR356 and cloning into pKT25 using XbaI/KpnI. mreBH was amplified by PCR using oligonucleotides JR368/JR369 and cloned into pKT25 and p25-N using XbaI/KpnI, resulting in pJR233 and pJR236, respectively. pJR242 and pJR243 were obtained by cloning mreC into pKT25 and p25-N, respectively, using primers JR364/JR365 and PstI/KpnI digestion. pbpA2 was cloned into pKT25 using oligonucleotides SHW153/SHW154 and XbaI/KpnI to create pJR250. pbpB1 was amplified with primers SHW157/SHW158 and cloned with SmaI/EcoRI into pKT25, yielding pSH236. pbpB2 was amplified with primers SHW155/SHW156 and cloned into pKT25 after PstI/BamHI digestion, yielding plasmid pSH235. pbpB3 was amplified using primers SHW159/160 and cloned by PstI/BamHI digestion into pKT25, resulting in pSH237. Finally, pSH484 was obtained by removing the N-terminal domain from gpsB present on plasmid pSH226 in a PCR with the primer pair SHW752/SHW753.
Plasmids encoding the respective genes fused to the N- or C-termini of the T18- or the T25-fragment of the Bordetella pertussis adenylate cyclase were co-transformed into E. coli BTH101. Transformants were selected on LB agar plates containing ampicillin (100 µg^−1mL^−1), kanamycin (50 µg^−1mL^−1), X-Gal (40 µg^−1mL^−1) and IPTG (0.1 mM) and photographs were taken after 24 and 48h growth at 30 °C. The BACTH experiments in Fig. 2b and Supplementary Figure 3C, D were repeated at least twice.

[1] = biological target: Fluorescein-LmPBPA11-20 wildtype (L. monocytogenes EGD-e); assay: fluorescence polarisation
BsGpsB_(1-68) = biological target: T4, BsGpsB_(1-68) (B. subtilis, UniProt P0CI74 1-68); assay: fluorescence polarisation; GpsB protein titrated into fluorescently labelled peptide; 10 mM Tris.HCl pH 8.0, 250 mM NaCl, 0.1% reduced Triton X-100; fit to a 1:1 interaction model; conditions: both partners purified
T4 construct: GpsB, Bacillus subtilis, residues 1-68; also called N-terminal domain of BsGpsB; source: E. coli, purified (Ni-NTA, thrombin, size exclusion)
T4 sequence (looked up): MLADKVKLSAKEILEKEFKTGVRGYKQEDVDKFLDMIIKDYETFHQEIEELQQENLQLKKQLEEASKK

full-length BsPBP1 = assay: SPR binding to immobilised full-length BsPBP1; design: species or system Bacillus subtilis; conditions: SPR, PBP1-coated chip; full-length GpsB data fit 1:1 only over limited concentration range (avidity), BsGpsB1-68 supports 1:1; peer review file; read-out: affinity / Kd by SPR
Excerpt: BsPBP1 and BsPBP1_17-914 were immobilised on the surface of a CM5 chip (GE Healthcare). For the BsPBP1/YrrSΔ13-16 titration 800 RUs of BsPBP1 were immobilised on the chip surface; for the BsPBP1/BsGpsB titration 1200 RUs of BsPBP1 were immobilised. YrrSΔ13-16, which lacks residues 13–16 in the cytoplasmic domain, was used in these experiments to minimise non-specific interactions with the chip matrix; binding of YrrSΔ13-16 to the reference surface was negligible and the deletion of residues 13–16 leaves the GpsB-binding motif intact. The YrrSΔ13-16 titration was carried out in single-cycle mode, without regenerating the surface between successive injections of protein, because harsh reagents were necessary for full surface regeneration.

## CSCC[C@H](NC(=O)[C@H](CO)NC(=O)CN)C(=O)NCC(=O)N[C@@H](CC(N)=O)C(=O)N[C@@H](CC(N)=O)C(=O)N[C@@H](CCC(N)=O)C(=O)N[C@@H](CO)C(=O)N[C@@H](CCCNC(=N)N)C(=O)N[C@@H](Cc1ccc(O)cc1)C(=O)N[C@@H](CCC(=O)O)C(=O)N[C@@H](CC(N)=O)C(=O)N[C@@H](CCCNC(=N)N)C(=O)N[C@@H](CC(=O)O)C(=O)N[C@@H](CCCCN)C(=O)N[C@@H](CCCNC(=N)N)C(=O)N[C@@H](CCCNC(=N)N)C(=O)N[C@@H](CCCCN)C(=O)N[C@@H](C)C(=O)N[C@@H](CC(N)=O)C(=O)N[C@@H](CSC1CC(=O)N(c2ccc3c(c2)C(=O)OC32c3ccc(O)cc3Oc3cc(O)ccc32)C1=O)C(=O)NCC(=O)O (stereo partly drawn) [Fluoroescein-BsYrrS1-18] (H-GSMGNNQSRYENRDKRRKANC(Fluorescein(5-Mal))G-OH; N-terminus and C-terminus assumed)
BsGpsB1-68Tyr25Phe
  reduction in affinity on GpsB mutation: 7 fold
BsGpsB1-68Asp31Ala
  reduction in affinity on GpsB mutation: 7 fold

## CSCC[C@H](NC(=O)[C@H](CO)NC(=O)CN)C(=O)N[C@@H](C)C(=O)N[C@@H](CC(=O)O)C(=O)N[C@@H](CCCCN)C(=O)N1CCC[C@H]1C(=O)N[C@@H](CCC(N)=O)C(=O)N[C@H](C(=O)N[C@@H](C)C(=O)N[C@@H](CO)C(=O)N[C@@H](CCC(N)=O)C(=O)N[C@@H](Cc1ccc(O)cc1)C(=O)N[C@@H](CCCNC(=N)N)C(=O)N[C@@H](CC(N)=O)C(=O)N[C@@H](CCCCN)C(=O)N[C@@H](CCC(N)=O)C(=O)N[C@@H](CO)C(=O)NCC(=O)NCC(=O)N[C@@H](CSC1CC(=O)N(c2ccc3c(c2)C(=O)OC32c3ccc(O)cc3Oc3cc(O)ccc32)C1=O)C(=O)N[C@@H](CCCCN)C(=O)O)[C@@H](C)O (stereo partly drawn) [Fluorescein-LmPBPA11-20 Arg8Ala] (H-GSMADKPQTASQYRNKQSGGC(Fluorescein(5-Mal))K-OH; N-terminus and C-terminus assumed)
BsGpsB1-68Lys32Glu
  reduction in affinity for BsGpsB1-68Lys32Glu: > 15 fold
LmGpsB
  BACTH interaction with LmGpsB: significant negative impact

## CSCC[C@H](NC(=O)[C@H](CO)NC(=O)CN)C(=O)N[C@@H](C)C(=O)N[C@@H](CC(=O)O)C(=O)N[C@@H](CCCCN)C(=O)N1CCC[C@H]1C(=O)N[C@@H](CCC(N)=O)C(=O)N[C@H](C(=O)N[C@@H](CCCNC(=N)N)C(=O)N[C@@H](CO)C(=O)N[C@@H](CCC(N)=O)C(=O)N[C@@H](Cc1ccc(O)cc1)C(=O)N[C@@H](C)C(=O)N[C@@H](CC(N)=O)C(=O)N[C@@H](CCCCN)C(=O)N[C@@H](CCC(N)=O)C(=O)N[C@@H](CO)C(=O)NCC(=O)NCC(=O)N[C@@H](CSC1CC(=O)N(c2ccc3c(c2)C(=O)OC32c3ccc(O)cc3Oc3cc(O)ccc32)C1=O)C(=O)N[C@@H](CCCCN)C(=O)O)[C@@H](C)O (stereo partly drawn) [Fluorescein-LmPBPA11-20 Arg12Ala] (H-GSMADKPQTRSQYANKQSGGC(Fluorescein(5-Mal))K-OH; N-terminus and C-terminus assumed)
BsGpsB1-68Lys32Glu
  reduction in affinity for BsGpsB1-68Lys32Glu: ~ 4 fold
LmGpsB
  BACTH interaction with LmGpsB: significant negative impact

## LmGpsB1-73 (from UniProt Q8Y614 1-73) (domain or fragment)
[1]
  Kd: 200 µM

## CCCC[C@H](NC(=O)c1ccc2c(c1)C(=O)OC21c2ccc(O)cc2Oc2cc(O)ccc21)C(=O)N[C@H](C(=O)N[C@@H](CC(N)=O)C(=O)N[C@@H](CCCC)C(=O)N[C@@H](CO)C(=O)N[C@@H](CCCNC(=N)N)C(=O)N[C@H](C(=O)N[C@@H](CCC(=O)O)C(=O)N[C@@H](CCCNC(=N)N)C(=O)N[C@@H](CCCNC(=N)N)C(=O)N[C@@H](CCCCN)C(=O)N[C@@H](C)C(=O)N[C@@H](CCC(N)=O)C(=O)N[C@@H](CC(N)=O)C(=O)N[C@@H](CC(C)C)C(=O)N[C@@H](Cc1ccc(O)cc1)C(=O)N[C@@H](CCC(=O)O)C(=O)N[C@@H](CC(=O)O)C(=O)N[C@@H](CCC(N)=O)C(=O)N[C@@H](CC(N)=O)C(=O)N[C@@H](C)C(=O)O)C(C)C)[C@@H](C)O [Fluoroescein-BsYpbE1-21] (5FAM-[Nle]TN[Nle]SRVERRKAQNLYEDQNA-OH; N-terminus and C-terminus assumed)
BsGpsB1-68Tyr25Phe
  reduction in affinity on GpsB mutation: ~ 40 fold
BsGpsB1-68Asp31Ala
  reduction in affinity on GpsB mutation: ~ 40 fold

B1: BsPBP1_(1-32)^Arg28Ala, TAMRA-labelled at position 16 (peptide, UniProt P39793 1-32, looked up)
peptide: MSDQFNSREARRKANC(TAMRA‑maleimide)KSSPSPKKGKKAKKGG
notes: PBP1, Bacillus subtilis, residues 1-32; source: E. coli, His-tagged MBP fusion purified (Ni-NTA), labelled, TEV-cleaved, ultrafiltration
BsGpsB_(1-68)
  binding result: binds

B2: BsYrrS_(1-18), fluorescein-labelled (peptide, UniProt O32031 1-18, looked up)
peptide: MSNNQSRYENRDKRRKAN
modifications: also: fluorescein label, position not given here
notes: YrrS, Bacillus subtilis, residues 1-18; also called entire cytoplasmic mini-domain of BsYrrS
BsGpsB_(1-68)
  Kd: 430 µM

B3: BsGpsB1-68: N-terminal domain of B. subtilis GpsB (protein)
chain: T4 sequence (looked up)
modifications: left off: His6, N-terminal, cleaved
notes: N-terminal domain of B. subtilis GpsB
full-length BsPBP1
  Kd: 40 µM
